Assay results taken from ChEMBL document CHEMBL4308841, “Synthesis, in vitro antiproliferative activity, and kinase inhibitory effects of pyrazole-containing diarylureas and diarylamides” (Eur J Med Chem, 2018).

Each compound was assayed on HL-60(TB) (assay: Growth inhibition of human HL-60(TB) cells incubated for 48 hrs by sulforhodamine B assay). Settings: HL-60, 48 h, read-out: GI50.
Format: functional, cell-based
In the case of `COc1cc(Cl)cc(-c2nn(-c3cccc(NC(=O)Nc4ccc(Cl)c(Cl)c4)c3)cc2-c2ccncc2)c1`, the GI50 is reported as 2.19 µM.

Same assay, conditions: HL-60, 48 h, read-out: LC50
In the case of `COc1cc(Cl)cc(-c2nn(-c3cccc(NC(=O)Nc4ccc(Cl)c(Cl)c4)c3)cc2-c2ccncc2)c1`, the LC50 is reported as > 100 µM.

Same assay, conditions: HL-60, 48 h, read-out: TGI
`COc1cc(Cl)cc(-c2nn(-c3cccc(NC(=O)Nc4ccc(Cl)c(Cl)c4)c3)cc2-c2ccncc2)c1` was tested, and the TGI was 55.8 µM.

Same assay, conditions: HL-60, 48 h, read-out: pGI50 (converted)
Compound `COc1cc(Cl)cc(-c2nn(-c3cccc(NC(=O)Nc4ccc(Cl)c(Cl)c4)c3)cc2-c2ccncc2)c1` has a GI50 of 2.19 µM.

Same assay, conditions: HL-60, 48 h, read-out: pLC50 (converted)
For `COc1cc(Cl)cc(-c2nn(-c3cccc(NC(=O)Nc4ccc(Cl)c(Cl)c4)c3)cc2-c2ccncc2)c1`, the LC50 was > 100 µM.

Same assay, conditions: HL-60, 48 h, read-out: pTGI (converted)
Work on `COc1cc(Cl)cc(-c2nn(-c3cccc(NC(=O)Nc4ccc(Cl)c(Cl)c4)c3)cc2-c2ccncc2)c1` yielded a TGI of 5.62 µM.

What follows are compounds tested on SR (assay: Growth inhibition of human SR cells incubated for 48 hrs by sulforhodamine B assay). Settings: read-out: GI50.
Format: functional, cell-based
In the case of `COc1cc(Cl)cc(-c2nn(-c3cccc(NC(=O)Nc4ccc(Cl)c(Cl)c4)c3)cc2-c2ccncc2)c1`, the GI50 is reported as 1.54 µM.

Same assay, conditions: read-out: LC50 (the source's name)
With `COc1cc(Cl)cc(-c2nn(-c3cccc(NC(=O)Nc4ccc(Cl)c(Cl)c4)c3)cc2-c2ccncc2)c1` the CC50 was > 100 µM.

Same assay, conditions: read-out: TGI
With `COc1cc(Cl)cc(-c2nn(-c3cccc(NC(=O)Nc4ccc(Cl)c(Cl)c4)c3)cc2-c2ccncc2)c1` the TGI was 53 µM.

Same assay, conditions: read-out: pGI50 (converted)
`COc1cc(Cl)cc(-c2nn(-c3cccc(NC(=O)Nc4ccc(Cl)c(Cl)c4)c3)cc2-c2ccncc2)c1` showed a GI50 of 1.55 µM.

Same assay, conditions: read-out: pLC50 (the source's name) (converted)
In the case of `COc1cc(Cl)cc(-c2nn(-c3cccc(NC(=O)Nc4ccc(Cl)c(Cl)c4)c3)cc2-c2ccncc2)c1`, the CC50 is reported as > 100 µM.

Same assay, conditions: read-out: pTGI (converted)
Work on `COc1cc(Cl)cc(-c2nn(-c3cccc(NC(=O)Nc4ccc(Cl)c(Cl)c4)c3)cc2-c2ccncc2)c1` yielded a TGI of 5.75 µM.

The compounds below were run on LOX IMVI (assay: Growth inhibition of human LOXIMVI cells incubated for 48 hrs by sulforhodamine B assay). Settings: read-out: GI50.
Format: functional
With `COc1cc(Cl)cc(-c2nn(-c3cccc(NC(=O)Nc4ccc(Cl)c(Cl)c4)c3)cc2-c2ccncc2)c1` the GI50 was 2.91 µM.

Same assay, conditions: read-out: LC50 (the source's name)
`COc1cc(Cl)cc(-c2nn(-c3cccc(NC(=O)Nc4ccc(Cl)c(Cl)c4)c3)cc2-c2ccncc2)c1` was tested, and the CC50 was > 100 µM.

Same assay, conditions: read-out: TGI
`COc1cc(Cl)cc(-c2nn(-c3cccc(NC(=O)Nc4ccc(Cl)c(Cl)c4)c3)cc2-c2ccncc2)c1` gave a TGI of 12.4 µM.

Same assay, conditions: read-out: pGI50 (converted)
`COc1cc(Cl)cc(-c2nn(-c3cccc(NC(=O)Nc4ccc(Cl)c(Cl)c4)c3)cc2-c2ccncc2)c1` showed a GI50 of 2.88 µM.

Same assay, conditions: read-out: pLC50 (the source's name) (converted)
For `COc1cc(Cl)cc(-c2nn(-c3cccc(NC(=O)Nc4ccc(Cl)c(Cl)c4)c3)cc2-c2ccncc2)c1`, the CC50 was > 100 µM.

Same assay, conditions: read-out: pTGI (converted)
In the case of `COc1cc(Cl)cc(-c2nn(-c3cccc(NC(=O)Nc4ccc(Cl)c(Cl)c4)c3)cc2-c2ccncc2)c1`, the TGI is reported as 30.9 µM.

The compounds below were run on M14 (assay: Growth inhibition of human M14 cells incubated for 48 hrs by sulforhodamine B assay). Settings: M14, 48 h, read-out: GI50.
Format: functional, cell-based
`COc1cc(Cl)cc(-c2nn(-c3cccc(NC(=O)Nc4ccc(Cl)c(Cl)c4)c3)cc2-c2ccncc2)c1` gave a GI50 of 2.52 µM.

Same assay, conditions: M14, 48 h, read-out: LC50 (the source's name)
In the case of `COc1cc(Cl)cc(-c2nn(-c3cccc(NC(=O)Nc4ccc(Cl)c(Cl)c4)c3)cc2-c2ccncc2)c1`, the CC50 is reported as > 100 µM.

Same assay, conditions: M14, 48 h, read-out: TGI
With `COc1cc(Cl)cc(-c2nn(-c3cccc(NC(=O)Nc4ccc(Cl)c(Cl)c4)c3)cc2-c2ccncc2)c1` the TGI was 10 µM.

Same assay, conditions: M14, 48 h, read-out: pGI50 (converted)
`COc1cc(Cl)cc(-c2nn(-c3cccc(NC(=O)Nc4ccc(Cl)c(Cl)c4)c3)cc2-c2ccncc2)c1` was tested, and the GI50 was 3.16 µM.

Same assay, conditions: M14, 48 h, read-out: pLC50 (the source's name) (converted)
For `COc1cc(Cl)cc(-c2nn(-c3cccc(NC(=O)Nc4ccc(Cl)c(Cl)c4)c3)cc2-c2ccncc2)c1`, the CC50 was > 100 µM.

Same assay, conditions: M14, 48 h, read-out: pTGI (converted)
With `COc1cc(Cl)cc(-c2nn(-c3cccc(NC(=O)Nc4ccc(Cl)c(Cl)c4)c3)cc2-c2ccncc2)c1` the TGI was 11 µM.

These compounds were tested on SK-MEL-5 (assay: Growth inhibition of human SK-MEL-5 cells incubated for 48 hrs by sulforhodamine B assay). Settings: SK-MEL-5, 48 h, read-out: GI50.
Format: functional, cell-based
Work on `COc1cc(Cl)cc(-c2nn(-c3cccc(NC(=O)Nc4ccc(Cl)c(Cl)c4)c3)cc2-c2ccncc2)c1` yielded a GI50 of 1.52 µM.

Same assay, conditions: SK-MEL-5, 48 h, read-out: LC50 (the source's name)
With `COc1cc(Cl)cc(-c2nn(-c3cccc(NC(=O)Nc4ccc(Cl)c(Cl)c4)c3)cc2-c2ccncc2)c1` the CC50 was 6.23 µM.

Same assay, conditions: SK-MEL-5, 48 h, read-out: TGI
With `COc1cc(Cl)cc(-c2nn(-c3cccc(NC(=O)Nc4ccc(Cl)c(Cl)c4)c3)cc2-c2ccncc2)c1` the TGI was 31.7 µM.

Same assay, conditions: SK-MEL-5, 48 h, read-out: pGI50 (converted)
Work on `COc1cc(Cl)cc(-c2nn(-c3cccc(NC(=O)Nc4ccc(Cl)c(Cl)c4)c3)cc2-c2ccncc2)c1` yielded a GI50 of 1.62 µM.

Same assay, conditions: SK-MEL-5, 48 h, read-out: pLC50 (the source's name) (converted)
With `COc1cc(Cl)cc(-c2nn(-c3cccc(NC(=O)Nc4ccc(Cl)c(Cl)c4)c3)cc2-c2ccncc2)c1` the CC50 was 6.17 µM.

Same assay, conditions: SK-MEL-5, 48 h, read-out: pTGI (converted)
Compound `COc1cc(Cl)cc(-c2nn(-c3cccc(NC(=O)Nc4ccc(Cl)c(Cl)c4)c3)cc2-c2ccncc2)c1` has a TGI of 3.16 µM.

What follows are compounds tested on IGROV-1 (assay: Growth inhibition of human IGROV1 cells incubated for 48 hrs by sulforhodamine B assay). Settings: IGROV-1, 48 h, read-out: GI50.
Format: functional, cell-based
`COc1cc(Cl)cc(-c2nn(-c3cccc(NC(=O)Nc4ccc(Cl)c(Cl)c4)c3)cc2-c2ccncc2)c1` gave a GI50 of 4.36 µM.

Same assay, conditions: IGROV-1, 48 h, read-out: LC50 (the source's name)
`COc1cc(Cl)cc(-c2nn(-c3cccc(NC(=O)Nc4ccc(Cl)c(Cl)c4)c3)cc2-c2ccncc2)c1` was tested, and the CC50 was > 100 µM.

Same assay, conditions: IGROV-1, 48 h, read-out: TGI
For `COc1cc(Cl)cc(-c2nn(-c3cccc(NC(=O)Nc4ccc(Cl)c(Cl)c4)c3)cc2-c2ccncc2)c1`, the TGI was > 100 µM.

Same assay, conditions: IGROV-1, 48 h, read-out: pGI50 (converted)
In the case of `COc1cc(Cl)cc(-c2nn(-c3cccc(NC(=O)Nc4ccc(Cl)c(Cl)c4)c3)cc2-c2ccncc2)c1`, the GI50 is reported as 4.37 µM.
